Assays:
[1] = DRUGMATRIX: Phosphodiesterase PDE3 enzyme inhibition (substrate: [3H]cAMP + cAMP); format: tissue-based, Homo sapiens; conditions: platelet; Not Active = under 50% inhibition at 10 µM
[2] = DRUGMATRIX: Glutamate, NMDA, Agonism radioligand binding (ligand: [3H] CGP-39653); format: cell membranes, Rattus norvegicus, Wistar, Cerebral cortex, Membrane; conditions: Not Active = under 50% inhibition at 10 µM
[3] = DRUGMATRIX: Calcium Channel Type L, Phenylalkylamine radioligand binding (ligand: [3H] (-)-Desmethoxyverapamil (D-888)); format: cell membranes, Rattus norvegicus, Wistar, Brain, Membrane; conditions: Not Active = under 50% inhibition at 10 µM
[4] = molecular target: 5-hydroxytryptamine receptor 2B (Homo sapiens, UniProt P41595); format: cell membranes, CHO-K1, Membrane; note: in other assays of this panel Not Active means under 50% inhibition at 10 µM
Cytochrome P450 2E1 = Cytochrome P450 2E1 (Homo sapiens, UniProt P05181); conditions: bti-tn-5b1-4; note: in other assays of this panel Not Active means under 50% inhibition at 10 µM
[5] = DRUGMATRIX: Glutamate, NMDA, Phencyclidine radioligand binding (ligand: [3H] TCP); format: cell membranes, Rattus norvegicus, Wistar, Cerebral cortex, Membrane; conditions: Not Active = under 50% inhibition at 10 µM
[6] = molecular target: Voltage-gated inwardly rectifying potassium channel KCNH2 (Homo sapiens, UniProt Q12809); conditions: hek293; note: in other assays of this panel Not Active means under 50% inhibition at 10 µM
Sequence of Voltage-gated inwardly rectifying potassium channel KCNH2 (Q12809 whole entry): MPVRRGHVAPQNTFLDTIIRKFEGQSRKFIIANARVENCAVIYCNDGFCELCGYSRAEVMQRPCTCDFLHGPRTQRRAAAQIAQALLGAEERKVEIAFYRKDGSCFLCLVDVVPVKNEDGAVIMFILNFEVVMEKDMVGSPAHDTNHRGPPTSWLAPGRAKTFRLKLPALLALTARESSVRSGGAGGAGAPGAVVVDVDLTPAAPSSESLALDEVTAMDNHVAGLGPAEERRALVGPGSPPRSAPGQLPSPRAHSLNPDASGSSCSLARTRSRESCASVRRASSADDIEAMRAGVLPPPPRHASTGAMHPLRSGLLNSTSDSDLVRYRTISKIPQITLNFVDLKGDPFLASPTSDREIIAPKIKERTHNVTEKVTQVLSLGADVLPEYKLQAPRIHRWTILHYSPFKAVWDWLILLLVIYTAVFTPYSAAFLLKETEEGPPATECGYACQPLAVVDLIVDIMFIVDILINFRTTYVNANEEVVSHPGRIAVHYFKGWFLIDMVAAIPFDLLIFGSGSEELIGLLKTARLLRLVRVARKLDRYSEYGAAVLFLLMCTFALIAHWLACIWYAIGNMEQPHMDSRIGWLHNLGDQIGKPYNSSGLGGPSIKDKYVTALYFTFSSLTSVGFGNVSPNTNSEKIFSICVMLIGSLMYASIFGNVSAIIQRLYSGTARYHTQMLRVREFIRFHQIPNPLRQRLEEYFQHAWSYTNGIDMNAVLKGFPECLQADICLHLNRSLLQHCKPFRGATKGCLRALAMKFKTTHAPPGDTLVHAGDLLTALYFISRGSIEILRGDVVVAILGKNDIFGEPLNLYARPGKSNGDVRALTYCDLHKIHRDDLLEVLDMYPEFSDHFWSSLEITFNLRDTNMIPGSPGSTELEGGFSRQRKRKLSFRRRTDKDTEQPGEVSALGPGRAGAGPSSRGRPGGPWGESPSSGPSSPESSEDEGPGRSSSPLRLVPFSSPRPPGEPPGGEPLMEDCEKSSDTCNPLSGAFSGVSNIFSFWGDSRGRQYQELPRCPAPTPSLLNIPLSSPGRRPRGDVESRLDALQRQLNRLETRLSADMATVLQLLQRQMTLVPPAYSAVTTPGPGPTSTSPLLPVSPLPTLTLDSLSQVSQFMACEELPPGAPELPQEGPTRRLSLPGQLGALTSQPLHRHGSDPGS

Sequence of Cytochrome P450 2E1 (P05181 whole entry): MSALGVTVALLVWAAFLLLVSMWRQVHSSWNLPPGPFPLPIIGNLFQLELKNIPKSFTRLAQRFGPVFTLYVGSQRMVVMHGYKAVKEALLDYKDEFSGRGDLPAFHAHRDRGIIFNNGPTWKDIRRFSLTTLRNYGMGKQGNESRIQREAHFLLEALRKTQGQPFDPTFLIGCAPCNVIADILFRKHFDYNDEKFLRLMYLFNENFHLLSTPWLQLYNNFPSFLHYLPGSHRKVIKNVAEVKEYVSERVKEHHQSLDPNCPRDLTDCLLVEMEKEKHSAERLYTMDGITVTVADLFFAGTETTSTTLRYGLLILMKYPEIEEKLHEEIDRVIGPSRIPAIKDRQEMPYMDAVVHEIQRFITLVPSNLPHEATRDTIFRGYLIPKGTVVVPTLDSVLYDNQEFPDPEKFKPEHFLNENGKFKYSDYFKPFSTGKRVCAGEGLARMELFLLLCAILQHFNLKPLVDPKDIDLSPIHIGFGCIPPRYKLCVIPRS
Sequence of 5-hydroxytryptamine receptor 2B (P41595 whole entry): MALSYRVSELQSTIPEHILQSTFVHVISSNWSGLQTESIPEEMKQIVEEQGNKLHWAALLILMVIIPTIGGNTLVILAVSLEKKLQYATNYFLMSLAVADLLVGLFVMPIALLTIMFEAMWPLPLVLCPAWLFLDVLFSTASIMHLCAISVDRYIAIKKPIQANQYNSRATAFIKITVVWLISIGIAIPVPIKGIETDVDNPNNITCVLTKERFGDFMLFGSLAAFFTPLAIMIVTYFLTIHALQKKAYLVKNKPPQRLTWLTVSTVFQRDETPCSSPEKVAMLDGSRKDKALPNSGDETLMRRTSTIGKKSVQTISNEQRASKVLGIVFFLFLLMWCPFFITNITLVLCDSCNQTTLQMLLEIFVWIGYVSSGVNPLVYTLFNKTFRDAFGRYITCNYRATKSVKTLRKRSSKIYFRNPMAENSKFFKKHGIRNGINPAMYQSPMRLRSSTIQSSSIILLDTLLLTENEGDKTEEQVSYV

For C[C@]12C=CC(=O)C=C1CC[C@@H]1[C@@H]2[C@@H](O)C[C@@]2(C)[C@H]1CC[C@]2(O)C(=O)CO [PREDNISOLONE], the IC50 [1] was “Not Active”, the Ki [1] was “Not Active” and the IC50 [2] was “Not Active”. The Ki [2] was “Not Active”, the IC50 [3] was “Not Active” and the Ki [3] was “Not Active”. For the same compound, the IC50 ([4]; cho-k1) was “Not Active”, the IC50 (Cytochrome P450 2E1) was “Not Active” and the Ki (Cytochrome P450 2E1) was “Not Active”. The IC50 [5] was “Not Active”, the Ki [5] was “Not Active” and the IC50 [6] was “Not Active”. The Ki [6] was “Not Active”.

With CC(=O)[C@H]1[C@H](C#N)C[C@H]2[C@@H]3CC=C4C[C@@H](O)CC[C@]4(C)[C@H]3CC[C@@]21C [PREGNENOLONE CARBONITRILE] the IC50 [1] was “Not Active”, the Ki [1] was “Not Active” and the IC50 [2] was “Not Active”. The Ki [2] was “Not Active”, the IC50 [3] was “Not Active” and the Ki [3] was “Not Active”. For the same compound, the IC50 ([4]; cho-k1) was “Not Active”, the IC50 (Cytochrome P450 2E1) was “Not Active” and the Ki (Cytochrome P450 2E1) was “Not Active”. The IC50 [5] was “Not Active”, the Ki [5] was “Not Active” and the IC50 [6] was “Not Active”. The Ki [6] was “Not Active”.

In the case of CC(C(=O)O)c1cccc(Oc2ccccc2)c1 (centres undefined) [FENOPROFEN], the IC50 [1] is reported as “Not Active”, the Ki [1] is reported as “Not Active” and the IC50 [2] is reported as “Not Active”. For the same compound, the Ki [2] was “Not Active”, the IC50 [3] was “Not Active” and the Ki [3] was “Not Active”. For the same compound, the IC50 ([4]; cho-k1) was “Not Active”, the IC50 (Cytochrome P450 2E1) was “Not Active” and the Ki (Cytochrome P450 2E1) was “Not Active”. The IC50 [5] was “Not Active”, the Ki [5] was “Not Active” and the IC50 [6] was “Not Active”. For the same compound, the Ki [6] was “Not Active”.

For NNc1nncc2ccccc12 [HYDRALAZINE], the IC50 [1] was “Not Active”, the Ki [1] was “Not Active” and the IC50 [2] was “Not Active”. The Ki [2] was “Not Active”, the IC50 [3] was “Not Active” and the Ki [3] was “Not Active”. For the same compound, the IC50 ([4]; cho-k1) was “Not Active”, the IC50 (Cytochrome P450 2E1) was “Not Active” and the Ki (Cytochrome P450 2E1) was “Not Active”. The IC50 [5] was “Not Active”, the Ki [5] was “Not Active” and the IC50 [6] was “Not Active”. For the same compound, the Ki [6] was “Not Active”.

With O=C1O[C@H]([C@@H](O)CO)C(O)=C1O [ASCORBIC ACID] the IC50 [1] was “Not Active”, the Ki [1] was “Not Active” and the IC50 [2] was “Not Active”. The Ki [2] was “Not Active”, the IC50 [3] was “Not Active” and the Ki [3] was “Not Active”. The IC50 ([4]; cho-k1) was “Not Active”, the IC50 (Cytochrome P450 2E1) was “Not Active” and the Ki (Cytochrome P450 2E1) was “Not Active”. The IC50 [5] was “Not Active”, the Ki [5] was “Not Active” and the IC50 [6] was “Not Active”. The Ki [6] was “Not Active”.

In the case of NC(=O)C[S+]([O-])C(c1ccccc1)c1ccccc1 (centres undefined) [MODAFINIL], the IC50 [1] is reported as “Not Active”, the Ki [1] is reported as “Not Active” and the IC50 [2] is reported as “Not Active”. The Ki [2] was “Not Active”, the IC50 [3] was “Not Active” and the Ki [3] was “Not Active”. For the same compound, the IC50 ([4]; cho-k1) was “Not Active”, the IC50 (Cytochrome P450 2E1) was “Not Active” and the Ki (Cytochrome P450 2E1) was “Not Active”. For the same compound, the IC50 [5] was “Not Active”, the Ki [5] was “Not Active” and the IC50 [6] was “Not Active”. The Ki [6] was “Not Active”.

In the case of COc1ccc2cc3[n+](cc2c1OC)CCc1cc2c(cc1-3)OCO2.[Cl-] [BERBERINE CHLORIDE], the IC50 [1] is reported as “Not Active”, the Ki [1] is reported as “Not Active” and the IC50 [2] is reported as “Not Active”. The Ki [2] was “Not Active”, the IC50 [3] was “Not Active” and the Ki [3] was “Not Active”. The IC50 ([4]; read-out: IC50) was 3440 nM, the Ki ([4]; read-out: Ki) was 2190 nM and the IC50 (Cytochrome P450 2E1) was “Not Active”. For the same compound, the Ki (Cytochrome P450 2E1) was “Not Active”, the IC50 [5] was “Not Active” and the Ki [5] was “Not Active”. For the same compound, the IC50 [6] was “Not Active” and the Ki [6] was “Not Active”.

In the case of GRAMICIDIN, the IC50 [1] is reported as “Not Active”, the Ki [1] is reported as “Not Active” and the IC50 [2] is reported as “Not Active”. For the same compound, the Ki [2] was “Not Active”, the IC50 [3] was “Not Active” and the Ki [3] was “Not Active”. The IC50 ([4]; cho-k1) was “Not Active”, the Ki ([4]; cho-k1) was “Not Active” and the IC50 (Cytochrome P450 2E1) was “Not Active”. The Ki (Cytochrome P450 2E1) was “Not Active”, the IC50 [5] was “Not Active” and the Ki [5] was “Not Active”. For the same compound, the IC50 [6] was “Not Active” and the Ki [6] was “Not Active”.

In the case of CCC1(C)CC(=O)NC1=O (centres undefined) [ETHOSUXIMIDE], the IC50 [1] is reported as “Not Active”, the Ki [1] is reported as “Not Active” and the IC50 [2] is reported as “Not Active”. The Ki [2] was “Not Active”, the IC50 [3] was “Not Active” and the Ki [3] was “Not Active”. For the same compound, the IC50 ([4]; cho-k1) was “Not Active”, the IC50 (Cytochrome P450 2E1) was “Not Active” and the Ki (Cytochrome P450 2E1) was “Not Active”. For the same compound, the IC50 [5] was “Not Active”, the Ki [5] was “Not Active” and the IC50 [6] was “Not Active”. The Ki [6] was “Not Active”.

For Cc1nnc2n1-c1ccc(Cl)cc1C(c1ccccc1)=NC2 [ALPRAZOLAM], the IC50 [1] was “Not Active”, the Ki [1] was “Not Active” and the IC50 [2] was “Not Active”. For the same compound, the Ki [2] was “Not Active”, the IC50 [3] was “Not Active” and the Ki [3] was “Not Active”. For the same compound, the IC50 ([4]; cho-k1) was “Not Active”, the IC50 (Cytochrome P450 2E1) was “Not Active” and the Ki (Cytochrome P450 2E1) was “Not Active”. For the same compound, the IC50 [5] was “Not Active”, the Ki [5] was “Not Active” and the IC50 [6] was “Not Active”. For the same compound, the Ki [6] was “Not Active”.

In the case of COc1ccc(C(=O)N2CCCC2=O)cc1, the IC50 [1] is reported as “Not Active”, the Ki [1] is reported as “Not Active” and the IC50 [2] is reported as “Not Active”. For the same compound, the Ki [2] was “Not Active”, the IC50 [3] was “Not Active” and the Ki [3] was “Not Active”. The IC50 ([4]; cho-k1) was “Not Active”, the IC50 (Cytochrome P450 2E1) was “Not Active” and the Ki (Cytochrome P450 2E1) was “Not Active”. The IC50 [5] was “Not Active”, the Ki [5] was “Not Active” and the IC50 [6] was “Not Active”. For the same compound, the Ki [6] was “Not Active”.

In the case of GENTAMICIN, the IC50 [1] is reported as “Not Active”, the Ki [1] is reported as “Not Active” and the IC50 [2] is reported as “Not Active”. For the same compound, the Ki [2] was “Not Active”, the IC50 [3] was “Not Active” and the Ki [3] was “Not Active”. For the same compound, the IC50 ([4]; cho-k1) was “Not Active”, the Ki ([4]; cho-k1) was “Not Active” and the IC50 (Cytochrome P450 2E1) was “Not Active”. The Ki (Cytochrome P450 2E1) was “Not Active”, the IC50 [5] was “Not Active” and the Ki [5] was “Not Active”. For the same compound, the IC50 [6] was “Not Active” and the Ki [6] was “Not Active”.
